# Experimental data as given in patent US12202835B2, “Substituted aromatic ring-linked dioxinoquinazolines and dioxinoquinolines as kinase inhibitors” (BEIJING SCITECH-MQ PHARMACEUTICALS LIMITED, priority 2018, dated 2025).
# Tested on: Ba/F3 LMNA-NTRK1-G595R cells
# Test: Assay for inhibiting the proliferation of Ba/F3 LMNA-NTRK1-G595R cells (CCK-8)
# Type: cell-based
# Settings: Mus musculus, BaF3
# Outline: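 Cells seeded in 96-well plates overnight, then exposed 72 h to 9 three-fold dilutions of compound (0.25% DMSO final). Viability by CCK-8 (1-2 h at 37° C., OD 450 nm), survival normalized to untreated and cell-free blanks; IC50 by curve fitting.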
row,Structure (SMILES),IC50 [nM]
1,"COCCOc1cc2nccc(Oc3ccc(NC(=O)c4cn(C(C)C)c(=O)n(-c5ccc(F)cc5)c4=O)cc3F)c2c2c1OCCO2 [Example 43, N-(3-fluoro-4-((5-(2-methoxyethoxy)-2,3-dihydro-[1,4]dioxino[2,3-f]quinolin-10-yl)oxy)phenyl)-3-(4-fluorophenyl)-1-isopropyl-2,4-dioxo-1,2,3,4-tetrahydropyrimidine-5-carboxamide]",50 to 200
2,"CCn1cc(C(=O)Nc2ccc(Oc3ccnc4cc(OCCOC)c5c(c34)OCCO5)c(F)c2)c(=O)n(-c2ccc(F)cc2)c1=O [Example 44, N-(3-fluoro-4-((5-(2-methoxyethoxy)-2,3-dihydro-[1,4]dioxino[2,3-f]quinolin-10-yl)oxy)phenyl)-3-(4-fluorophenyl)-1-ethyl-2,4-dioxo-1,2,3,4-tetrahydropyrimidine-5-carboxamide]",≤ 50
3,"COCCn1cc(C(=O)Nc2ccc(Oc3ccnc4cc(OC)c5c(c34)OCCO5)c(F)c2)c(=O)n(-c2ccc(F)cc2)c1=O [Example 46, N-(3-fluoro-4-((5-methoxy-2,3-dihydro-[1,4]dioxino[2,3-f]quinolin-10-yl)oxy)phenyl)-3-(4-fluorophenyl)-1-(2-methoxyethyl)-2,4-dioxo-1,2,3,4-tetrahydropyrimidine-5-carboxamide]",50 to 200
4,"CN1CCN(CCCOc2cc3nccc(Oc4ccc(NC(=O)c5cn(C)c(=O)n(-c6ccc(F)cc6)c5=O)cc4F)c3c3c2OCCO3)CC1 [Example 74, N-(3-fluoro-4-((5-(3-(4-methylpiperazin-1-yl)propoxy)-2,3-dihydro-[1,4]dioxino[2,3-f]quinolin-10-yl)oxy)phenyl)-3-(4-fluorophenyl)-1-methyl-2,4-dioxo-1,2,3,4-tetrahydropyrimidine-5-carboxamide]",200 to 1000
5,"CC(=O)N1CCN(CCCOc2cc3nccc(Oc4ccc(NC(=O)c5cn(C(C)C)c(=O)n(-c6ccc(F)cc6)c5=O)cc4F)c3c3c2OCCO3)CC1 [Example 75, N-(3-fluoro-4-((5-(3-(4-acetylpiperazin-1-yl)propoxy)-2,3-dihydro-[1,4]dioxino[2,3-f]quinolin-10-yl)oxy)phenyl)-3-(4-fluorophenyl)-1-isopropyl-2,4-dioxo-1,2,3,4-tetrahydropyrimidine-5-carboxamide]",200 to 1000
6,"CC(C)n1cc(C(=O)Nc2ccc(Oc3ccnc4cc(OCCCN5CCCC5)c5c(c34)OCCO5)c(F)c2)c(=O)n(-c2ccc(F)cc2)c1=O [Example 77, N-(3-fluoro-4-((5-(3-(pyrrolidin-1-yl)propoxy)-2,3-dihydro-[1,4]dioxino[2,3-f]quinolin-10-yl)oxy)phenyl)-3-(4-fluorophenyl)-1-isopropyl-2,4-dioxo-1,2,3,4-tetrahydropyrimidine-5-carboxamide]",200 to 1000
7,"CC(C)n1cc(C(=O)Nc2ccc(Oc3ccnc4cc(OCCO)c5c(c34)OCCO5)c(F)c2)c(=O)n(-c2ccc(F)cc2)c1=O [Example 78, N-(3-fluoro-4-((5-(2-hydroxyethoxy)-2,3-dihydro-[1,4]dioxino[2,3-f]quinolin-10-yl)oxy)phenyl)-3-(4-fluorophenyl)-1-isopropyl-2,4-dioxo-1,2,3,4-tetrahydropyrimidine-5-carboxamide]",50 to 200
8,"CC(C)n1cc(C(=O)Nc2ccc(Oc3ccnc4cc(OCCCO)c5c(c34)OCCO5)c(F)c2)c(=O)n(-c2ccc(F)cc2)c1=O [Example 79, N-(3-fluoro-4-((5-(3-hydroxypropoxy)-2,3-dihydro-[1,4]dioxino[2,3-f]quinolin-10-yl)oxy)phenyl)-3-(4-fluorophenyl)-1-isopropyl-2,4-dioxo-1,2,3,4-tetrahydropyrimidine-5-carboxamide]",50 to 200
9,"Cn1cc(C(=O)Nc2ccc(Oc3ccnc4cc(OC5CCOC5)c5c(c34)OCCO5)c(F)c2)c(=O)n(-c2ccc(F)cc2)c1=O (stereo not drawn) [Example 90, N-(3-fluoro-4-((5-((tetrahydrofuran-3-yl)oxy)-2,3-dihydro-[1,4]dioxino[2,3-f]quinolin-10-yl)oxy)phenyl)-3-(4-fluorophenyl)-1-methyl-2,4-dioxo-1,2,3,4-tetrahydropyrimidine-5-carboxamide]",50 to 200
